Values quoted from earlier work, collected in patent publication US20050163858A1 (priority 2003, published 2005).

Key:
[1] = biological target: T1, serotonin 5HT1A (Homo sapiens, UniProt P08908)
T1 sequence (P08908 1-422): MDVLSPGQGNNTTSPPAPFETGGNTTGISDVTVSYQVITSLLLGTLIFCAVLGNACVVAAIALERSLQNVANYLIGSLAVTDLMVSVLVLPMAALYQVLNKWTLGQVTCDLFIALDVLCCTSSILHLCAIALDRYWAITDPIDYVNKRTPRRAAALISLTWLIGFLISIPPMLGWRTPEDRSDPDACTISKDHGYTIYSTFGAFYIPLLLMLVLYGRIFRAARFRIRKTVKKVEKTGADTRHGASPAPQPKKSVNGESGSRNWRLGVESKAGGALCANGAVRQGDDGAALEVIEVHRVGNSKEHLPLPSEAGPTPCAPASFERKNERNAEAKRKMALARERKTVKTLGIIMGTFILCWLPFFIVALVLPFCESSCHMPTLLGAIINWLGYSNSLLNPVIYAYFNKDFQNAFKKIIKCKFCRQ

[2] = biological target: dopamine D2 (Homo sapiens, UniProt P14416)
[3] = system: α1-adrenergic receptors
[4] = biological target: T2, serotonin 5HT2C (Homo sapiens, UniProt P28335)
T2 sequence (P28335 33-458): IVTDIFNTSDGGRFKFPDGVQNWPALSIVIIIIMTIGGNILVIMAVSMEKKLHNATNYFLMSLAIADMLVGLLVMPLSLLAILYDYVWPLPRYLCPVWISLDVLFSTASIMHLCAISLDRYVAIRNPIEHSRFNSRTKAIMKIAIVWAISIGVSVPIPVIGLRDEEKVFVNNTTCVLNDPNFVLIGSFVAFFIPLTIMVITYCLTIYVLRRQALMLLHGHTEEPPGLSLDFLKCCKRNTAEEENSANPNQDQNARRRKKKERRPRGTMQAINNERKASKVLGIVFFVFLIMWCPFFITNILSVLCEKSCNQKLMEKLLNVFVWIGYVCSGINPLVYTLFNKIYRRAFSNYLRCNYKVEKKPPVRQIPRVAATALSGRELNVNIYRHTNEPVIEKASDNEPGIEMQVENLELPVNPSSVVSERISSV

[5] = biological target: serotonin 5HT2A (Homo sapiens, UniProt P28223)
[6] = system: serotonin 5HT1D

Measured: in vitro binding affinity

Sequence of dopamine D2 (P14416 whole entry): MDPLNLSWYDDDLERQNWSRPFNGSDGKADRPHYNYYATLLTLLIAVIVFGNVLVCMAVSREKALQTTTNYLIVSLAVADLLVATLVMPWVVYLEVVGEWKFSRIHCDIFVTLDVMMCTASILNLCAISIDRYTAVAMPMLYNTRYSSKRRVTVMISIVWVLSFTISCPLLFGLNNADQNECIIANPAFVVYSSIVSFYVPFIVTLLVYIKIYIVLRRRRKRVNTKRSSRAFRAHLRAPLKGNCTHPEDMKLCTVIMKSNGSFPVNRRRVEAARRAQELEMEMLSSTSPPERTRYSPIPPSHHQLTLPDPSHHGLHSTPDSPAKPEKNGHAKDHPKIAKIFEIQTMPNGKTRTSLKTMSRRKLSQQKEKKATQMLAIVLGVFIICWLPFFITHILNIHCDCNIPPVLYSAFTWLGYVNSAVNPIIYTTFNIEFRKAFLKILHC
Sequence of serotonin 5HT2A (P28223 whole entry): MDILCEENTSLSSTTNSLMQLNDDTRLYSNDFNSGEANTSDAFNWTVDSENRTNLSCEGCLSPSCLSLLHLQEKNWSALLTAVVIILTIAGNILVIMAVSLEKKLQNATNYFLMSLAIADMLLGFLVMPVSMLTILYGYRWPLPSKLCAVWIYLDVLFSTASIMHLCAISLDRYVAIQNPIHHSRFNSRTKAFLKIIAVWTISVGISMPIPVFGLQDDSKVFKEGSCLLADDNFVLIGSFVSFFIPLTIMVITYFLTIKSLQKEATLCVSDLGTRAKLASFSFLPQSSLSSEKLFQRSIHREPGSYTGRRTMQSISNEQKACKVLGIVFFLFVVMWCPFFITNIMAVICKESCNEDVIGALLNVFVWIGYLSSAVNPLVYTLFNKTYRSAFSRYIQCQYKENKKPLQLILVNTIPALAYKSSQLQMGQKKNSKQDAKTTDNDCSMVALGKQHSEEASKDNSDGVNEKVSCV

O=C1Cc2cc(CCN3CCN(c4nsc5ccccc45)CC3)c(Cl)cc2N1 [Ziprasidone, 5-[2-[4-(1,2-benzisothiazol-3-yl)-1-piperazinyl]ethyl]-6-chloro-1,3-dihydro-2H-indol-2-one]
high: all assays above
